# Results from patent US20260373156A1, “CANCER TREATMENTS USING MTA-COOPERATIVE PRMT5 INHIBITORS” (AMGEN INC., priority 2022, published 2026).
# Tests used:
# [1] = system: PSN1 cells; test: CellTiter-Glo viability and CalcuSyn synergy, PRMT5 inhibitor + KIF18A, 6 days; conditions: for Combination Fa: 8640 min
# [2] = system: LU5268 NSCLC xenografts; test: Tumor growth inhibition, LU5268 NSCLC xenografts (Example 13); format: in vivo, Female NOD/SCID mice; conditions: Compound B 100 mg/kg orally once daily + sotorasib 100 mg/kg; versus either single agent alone
# Excerpt: 10 Female NOD/SCID mice were implanted with LU5268 NSCLC tumor xenografts. Mean tumor volumes for each grouping were between 100-200 mm^3. […] Plotted data represents the TGI (tumor growth inhibition), n=10 for each group.
# [3] = Compound B 0.0384 μM + KIF18A 0.003951 μM
# [4] = Compound B 0.0384 μM + KIF18A 0.005926 μM
# [5] = Compound B 0.0384 μM + KIF18A 0.008889 μM
# [6] = Compound B 0.0384 μM + KIF18A 0.013333 μM
# [7] = Compound B 0.0384 μM + KIF18A 0.02 μM
# [8] = Compound B 0.0384 μM + KIF18A 0.03 μM
# [9] = Compound B 0.0384 μM + KIF18A 0.045 μM
structure (smiles),measurement,setting,value
Cc1cc2cc(C(=O)N(Cc3ccc(C(F)(F)F)cn3)[C@@H](C)c3ncccn3)ccc2nc1N [Compound B],Computed CI value,[1]; [3],0.627
same,Combination Fa,[1]; [3],0.778
same,Computed CI value,[1]; [4],0.75
same,Combination Fa,[1]; [4],0.751
same,Computed CI value,[1]; [5],0.594
same,Combination Fa,[1]; [5],0.819
same,Computed CI value,[1]; [6],0.645
same,Combination Fa,[1]; [6],0.825
same,Computed CI value,[1]; [7],0.674
same,Combination Fa,[1]; [7],0.844
same,Computed CI value,[1]; [8],0.778
same,Combination Fa,[1]; [8],0.852
same,Computed CI value,[1]; [9],0.813
same,Combination Fa,[1]; [9],0.88
same,anti-tumor activity,[2],significant anti-tumor activity versus either single agent alone
